# Assay results as given in patent publication US6942963B1, “Methods for identifying treatments for neurotoxicity in Alzheimer's disease caused by β-amyloid peptides” (Massachusetts Institute of Technology, priority 1997, dated 2005).
# Values joined by “and” are separate entries in the source; they are usually repeats but may differ in a detail not shown here. Equal entries are not always repeated. “Also recorded” adds a separate entry of the source. Where two headings read alike, the source gives them in different places. Non-standard residues stand in square brackets, D forms with d. No end group written: not given here.
# Experiments:
# Assay type in all cases: cell-based, human
# [1] = system: βAP25-35-induced calcium influx, hNT cells; experiment: βAP25-35-induced calcium influx in hNT cells: effect of channel antagonists and decoy peptides; settings: for effect on βAP25-35-induced calcium influx: βAP25-35 21 μM; for effect on increase in internal calcium concentration due to βAP25-35: decoy peptide mixed with βAP25-35 at ratio 1:1 (20 μM+20 μM), hNT cells
# hNT cells [2] = experiment: Internal calcium concentration [Ca2+]int in hNT cells (fura-2) on exposure to β-amyloid peptide or test agent alone; settings: for [Ca^2+]int after exposure to unfiltered peptide: hNT cells in Tyr2Ca, peptide at 20 μM (βAP1-42 aggregated 37C, 24 hr), controls 80 nM and 50 nM; for % increase in [Ca^2+]int: unfiltered suspension in Tyr2Ca; for effect of decoy peptide by itself on cytosolic calcium concentrations: decoy peptide alone at 20 μM, filtered stocks, Tyrode's/2 mM Ca
# hNT cells [3] = experiment: Membrane depolarization of hNT cells by aggregated Aβ1-42 (DiBAC4(3) fluorescence); settings: for % ΔF / Δ EM: aggregated Aβ1-42 20 μM
# Experimental: Changes in membrane potential were measured using the fluorescent potentiometric probe DiBAC4(3), (Molecular Probes, Inc., Eugene, Oreg.). This dye, bis-(1,3-dibutylbarbituric acid)trimethine oxonol, detects membrane depolarization, because it enters depolarized cells and binds to intracellular proteins or membranes. […] Hyperpolarization results in extrusion of the anionic dye and thus a decrease in fluorescence. Our measurements use two dyes, fura-2 and DiBAC4(3), since these dyes have excitation wavelengths that are far apart, but have similar emission wavelengths. DiBAC4(3) was added to fura-2AM loaded hNT cells at a concentration of 100 nM in Tyr2Ca. Rapidly alternating measurements of fura-2 (excited at 340 & 380 nm) and DiBAC4(3) (excited at 490 nm) were performed using emission at 516 nm. Both dyes were measured using the special “Fura2-Fluo3” filter set 7400 from Chroma Technology (Brattleboro, Vt.), a Zeiss Axiovert 100 inverted microscope and a photometry system (model “Delta Ram” from Photon Technology International, Inc., Monmouth Junction, N.J.).
# The bis-oxonol dye DiBAC4(3) was used as an indicator of transmembrane electrical potential changes (Langheinrich and Daut, J. Physiol. 502:397-408, 1997) when our hNT cells were treated with, for example, the β-amyloid peptide Aβ1-42. The use of this dye enabled us to monitor groups of 5-15 neurons, rather than single cells as would be the case with patch clamping methods. We expected great variability from cell to cell, as was found in our earlier patch clamp work (Sanderson et al., Brain Res. 744:7-14, 1997). The method has been used by many laboratories for the determination of membrane potentials in different cell types. Fluorescence is increased upon membrane depolarization as more dye enters the cytosol, resulting in increased binding to proteins (Braiuner et al., Biochim. Biophys. Acta 771:[…], 1984). Partitioning of bis-oxonol dye between the plasma membrane and the cytosol follows the Nernst equation (Langheinrich and Daut, 1997). Unless otherwise indicated, all measurements were carried out in Tyrode's solution containing 2 mM Ca.
# We calibrated the gross fluorescence as a function of membrane potential by treating a culture of hNT neurons, bathed in Tyrode's 2Ca buffer with the usual 3 mM K^+, containing 97 nM DiBAC4(3), with Tyrode's 2Ca buffer containing 40 mM KCl. We measured the gross fluorescence at excitation=490 nm and emission=510 nm for the depolarization by KCl and for depolarization by the Aβ1-42 peptide. We used the formula proposed by Langheinrich and Daut, 1997: % ΔF=(1−Fmin/Fmax)*100=ΔEMmV
# where Fmin=fluorescence before treatment, Fmax=fluorescence during treatment, ΔEM mV is the change in membrane potential brought about by the treatment. The calculation based on the expected depolarization by changing from 3 mM KCl to 40 MM KCl gave a value of ΔEM=3.8 mV/1% ΔF.
# Groups of hNT neuronal cells (5-17) were exposed to Aβ1-42 (20 μM) that had been incubated at 37° C. for 48 hours; 97 nM DiBAC4(3) was present. Fluorescence was measured as described above; Ex=490 nm, Em=510 nm.
# [4] = system: βAP1-42-induced calcium influx, hNT cells; experiment: βAP1-42 (Aβ1-42) aggregate-induced calcium influx in hNT cells: effect of decoy peptides and channel blockers; settings: βAP1-42 25 μM coincubated with equimolar decoy peptide at 37° C. for 44 hours, hNT cells
# [5] = hNT cells, aggregated Aβ1-42 in Tyrode's medium without calcium
compound,measurement,setting,value
"NC(CCCP(=O)(O)O)C(=O)O (racemic) [DL-AP5, DL-2-amino-5-phosphonovaleric acid]",block of calcium influx into hNT neuronal cells caused by βAP25-35,[1]; concentration not stated,lack of blocking effect
same,effect on βAP25-35-induced calcium influx,[1]; DL-AP5 at 50 μM,failed to prevent
same,effect on βAP25-35-induced calcium influx,[1]; DL-AP5 at 200 μM,failed to prevent
[Cl][Al]([Cl])[Cl] [AlCl3],calcium influx induced by agent by itself,"hNT cells [2]; hNT neuronal cells, from external calcium sources",powerfully induces calcium influx
"O=c1[nH]c2cc([N+](=O)[O-])c([N+](=O)[O-])cc2[nH]c1=O [DNQX, 6,7-dinitroquinoxaline-2,3(1H, 4H)-dione]",effect on βAP25-35-induced calcium influx,"[1]; DNQX at 8 μM, applied together",completely prevented
O=C(O)CN(CCOCCOCCN(CC(=O)O)CC(=O)O)CC(=O)O [EGTA],internal calcium with chelator in external solution in addition to βAP25-35,[1]; 20 mM EGTA in addition to βAP25-35 peptide,decreased internal calcium to control levels
"NC(CO)(CO)CO [TRIS^+, Tromethamine]",effect on membrane depolarization by aggregated Aβ1-42,"hNT cells [3]; hNT cells, 10 mM TRIS^+",moderate decrease in membrane depolarization; also recorded: partially blocks membrane depolarization
[Cl-].[Cl-].[Mg+2] [magnesium chloride],block of calcium influx into hNT neuronal cells caused by βAP25-35,[1],blocks the influx of Ca^2+; also recorded: can be blocked
same,effect on βAP25-35-induced influx of calcium,[1],totally blocked
GSNKGAIIGLM [βAP25-35],[Ca^2+]int after exposure to unfiltered peptide,hNT cells [2],approximately 200 nM
same,internal calcium concentration after restoring external calcium to 2 mM without extra peptide,hNT cells [2]; hNT cells previously exposed to 50 μM βAP25-35 in Tyrode's/0 mM Ca,~200 % of control levels
same,[Ca^2+]int relative to control,"hNT cells [2]; hNT cells, 21 μM βAP25-35, single experiment, 4 cells",270 % of control
same,internal calcium in external Tyrode's solution without calcium,"hNT cells [2]; hNT cells, Tyrode's/0 mM Ca plus 50 μM βAP25-35, even after 15 minutes",no increase in internal calcium
same,% increase in [Ca^2+]int,"hNT cells [2]; hNT cells, [βAP25-35] 10 μM",170 ± 85%
same,% increase in [Ca^2+]int,"hNT cells [2]; hNT cells, [βAP25-35] 20 μM",286 ± 179%
same,% increase in [Ca^2+]int,"hNT cells [2]; hNT cells, [βAP25-35] 50 μM",343 ± 245%
same,% increase in [Ca^2+]int,"hNT cells [2]; hNT cells, [βAP25-35] 130 μM",623 ± 555%
same,% increase in [Ca^2+]int,"hNT cells [2]; hNT cells, [βAP25-35] 172 μM",367 ± 108%
same,% increase in [Ca^2+]int,"hNT cells [2]; hNT cells, [βAP25-35] 334 μM",508 ± 561%
same,% increase in [Ca^2+]int,"hNT cells [2]; hNT cells, [βAP25-35] 112-114 μM",366 ± 260%
^+NH3-TVIGTIGGG-CONH2 (H-[dT][dV][dI]G[dT][dI]GGG-NH2; SMILES CC[C@@H](C)[C@@H](NC(=O)[C@H](NC(=O)[C@H](N)[C@H](C)O)C(C)C)C(=O)NCC(=O)N[C@@H](C(=O)N[C@@H](C(=O)NCC(=O)NCC(=O)NCC(N)=O)[C@H](C)CC)[C@H](C)O) [DP3],effect on calcium influx when decoy peptide added prior to βAP25-35 aggregation,"[1]; DP3 in Tyrode's/2 mM Ca for 1 hour, then βAP25-35 added, both 20 mM [sic]",reduced the calcium influx induced by βAP25-35; also recorded: can reduce the βAP25-35-induced Ca^2+ influx
same,effect on increase in internal calcium concentration due to βAP25-35,[1],reduced or abolished the increase in the internal calcium concentration
same,effect on ability of βAP25-35 to induce influx of calcium,[1]; unfiltered DP3 mixed with βAP25-35 at molar ratios of 1:2 or greater,marked decrease in the ability of βAP25-35 to induce influx of calcium
same,effect on calcium influx when decoy peptide added after βAP25-35 aggregation,"[1]; βAP25-35 aggregated 2 hours before DP3 addition, both 20 mM [sic]",did not reduce the induction of calcium influx
same,effect of decoy peptide by itself on cytosolic calcium concentrations,hNT cells [2]; hNT cells,raise cytosolic calcium concentrations somewhat
same,effect of unfiltered decoy peptide alone on [Ca^2+]int,"hNT cells [2]; hNT cells, unfiltered DP3 at 20 μM",an increase in [Ca^2+]int
^+NH3.A.G.V.I.S.I.G.G.G (AGVISIGGG; not fully specified; printed as ^+NH3.A.G.V.I.S.I.G.G.G) [DP7],effect on increase in internal calcium concentration due to βAP25-35,[1],reduced or abolished the increase in the internal calcium concentration
same,effect of decoy peptide by itself on cytosolic calcium concentrations,hNT cells [2]; hNT cells,raise cytosolic calcium concentrations somewhat
^+NH3.P.V.P.R^+.P.I.P.A.P.COO^− (H-[dP][dV][dP][dR][dP][dI][dP][dA][dP]-OH; also: modified) [DP17],effect on βAP1-42 calcium influx,[4],did not reduce the effect of βAP1-42 on the calcium influx
^+NH3.T.G.I.I.A.S.G.G.G. (H-[dT]G[dI][dI][dA][dS]GGG) [DP4],effect on increase in internal calcium concentration due to βAP25-35,[1],reduced or abolished the increase in the internal calcium concentration
same,effect of decoy peptide by itself on cytosolic calcium concentrations,hNT cells [2]; hNT cells,no effect on cytosolic calcium concentrations
^+NH3.T.T.I.V.S.T.G.G.G (H-[dT][dT][dI][dV][dS][dT]GGG) [DP6],effect on increase in internal calcium concentration due to βAP25-35,[1],reduced or abolished the increase in the internal calcium concentration
same,effect of decoy peptide by itself on cytosolic calcium concentrations,hNT cells [2]; hNT cells,raise cytosolic calcium concentrations somewhat
"βAP1-42: β-amyloid peptide, SEQ ID NO:20, purchased from Quality Controlled Biochemicals",calcium influx by Aβ1-42 not incubated at 37° C.,hNT cells [2]; Aβ1-42 sample not incubated (protofibrils),did not produce the characteristic calcium influx
same,[Ca^2+]int after exposure to unfiltered peptide,hNT cells [2],approximately 94 nM
same,cytosolic calcium level after spontaneous desensitization,"hNT cells [2]; hNT cells, aggregated Aβ1-42",~200 % of control
same,new plateau calcium level relative to control values,"hNT cells [2]; hNT cells, aggregated Aβ1-42, other experiments with longer time",about twofold
same,rise in cytosolic calcium without external calcium,hNT cells [2]; [5],almost no rise in cytosolic calcium
same,cytosolic calcium upon addition of aggregated Aβ1-42,"hNT cells [2]; hNT cells, fura-2, Tyrode's/2Ca",large increase in cytosolic calcium
same,concentration dependence of calcium influx,"hNT cells [2]; hNT cells, increasing βAP1-42 concentration",strong concentration dependence
same,% ΔF,"hNT cells [3]; [Ca^2+] 0 mM, Na^+",51.1%
same,% ΔF,"hNT cells [3]; [Ca^2+] 0.4 mM, Na^+",8.3%
same,Δ EM,"hNT cells [3]; [Ca^2+] 0.4 mM, Na^+",+31.6 mV
same,% ΔF,"hNT cells [3]; [Ca^2+] 2 mM, ext. cation NMDG^+",44.1%
same,% ΔF,"hNT cells [3]; [Ca^2+] 2 mM, ext. cation Na^+, no addition",15.7% and 14.8%
same,% ΔF,"hNT cells [3]; [Ca^2+] 2 mM, ext. cation TEA^+",44.8%
same,% ΔF,"hNT cells [3]; [Ca^2+] 10 mM, Na^+",15.3%
same,Δ EM,"hNT cells [3]; [Ca^2+] 10 mM, Na^+",+58.3 mV
same,membrane depolarization caused by pre-aggregated Aβ1-42,"hNT cells [3]; cultured hNT neuronal cells, Tyrode's/2Ca",large membrane depolarization
same,membrane depolarization with external Na^+ replaced,hNT cells [3]; external Na^+ replaced with equal concentration of TEA^+ or NMDG^+,large membrane depolarization
same,membrane depolarization without external calcium,hNT cells [3]; [5],greatly increased membrane depolarization
